Assay results reported in publication PMC5585349, “Biosynthesis of the nosiheptide indole side ring centers on a cryptic carrier protein NosJ” (Nature Communications, 2017).

How the values were obtained:
NosI = NosI (Streptomyces actuosus, UniProt C6FX48); assay: LC-HR-MS detection of MIA-AMP ([…]); type: biochemical
NosK = target: T1, NosK (Streptomyces actuosus, UniProt C6FX50); assay: thioester hydrolysis, HPLC UV […] nm; type: biochemical; conditions: CoA thioester hydrolysed
T1 construct: expressed in E. coli, purified
T1 sequence (C6FX50 entry or part of it): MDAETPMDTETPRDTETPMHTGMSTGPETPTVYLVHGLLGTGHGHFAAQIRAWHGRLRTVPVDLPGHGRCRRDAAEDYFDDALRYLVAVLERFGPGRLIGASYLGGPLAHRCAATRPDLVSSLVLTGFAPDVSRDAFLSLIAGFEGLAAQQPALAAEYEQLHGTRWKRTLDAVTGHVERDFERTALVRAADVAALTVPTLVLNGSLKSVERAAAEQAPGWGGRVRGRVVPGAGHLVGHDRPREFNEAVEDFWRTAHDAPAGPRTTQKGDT

Sequence of NosI (C6FX48 entry or part of it): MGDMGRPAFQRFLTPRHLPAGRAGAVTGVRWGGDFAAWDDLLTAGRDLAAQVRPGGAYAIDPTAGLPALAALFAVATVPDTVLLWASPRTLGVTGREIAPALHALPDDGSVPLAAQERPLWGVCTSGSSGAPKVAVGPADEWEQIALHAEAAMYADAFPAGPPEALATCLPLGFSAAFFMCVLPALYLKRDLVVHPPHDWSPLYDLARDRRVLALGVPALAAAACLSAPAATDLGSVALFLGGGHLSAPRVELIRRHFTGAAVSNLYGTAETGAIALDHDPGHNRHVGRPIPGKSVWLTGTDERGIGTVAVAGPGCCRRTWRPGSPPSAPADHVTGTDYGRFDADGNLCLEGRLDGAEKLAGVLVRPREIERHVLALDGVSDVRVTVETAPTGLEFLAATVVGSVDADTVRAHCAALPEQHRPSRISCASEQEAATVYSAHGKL

Row | SMILES | thioester hydrolysis, HPLC UV 300 nm (NosK) | further results
1 | Nc1ncnc2c1ncn2[C@@H]1O[C@H](COP(=O)(O)OP(=O)(O)OP(=O)(O)O)[C@@H](O)[C@H]1O [ATP] |  | LC-HR-MS detection of MIA-AMP (4) (NosI; MIA co-substrate): LC-HR-MS analysis of the reaction mixture containing NosI, MIA and ATP clearly showed the production
2 | Cc1cccc2[nH]c(C(=O)SCCNC(=O)CCNC(=O)[C@H](O)C(C)(C)COP(=O)(O)OP(=O)(O)OC[C@H]3O[C@@H](n4cnc5c(N)ncnc54)[C@H](O)[C@@H]3OP(=O)(O)O)c(C)c12 [DMIA-CoA] | NosK also hydrolyzes the CoA-bound MIA and DMIA thioesters with comparative efficiencies | 
3 | Cc1c(C(=O)SCCNC(=O)CCNC(=O)[C@H](O)C(C)(C)COP(=O)(O)OP(=O)(O)OC[C@H]2O[C@@H](n3cnc4c(N)ncnc43)[C@H](O)[C@@H]2OP(=O)(O)O)[nH]c2ccccc12 [MIA-CoA] | NosK also hydrolyzes the CoA-bound MIA and DMIA thioesters with comparative efficiencies | 
4 | Cc1c(C(=O)O)[nH]c2ccccc12 [compound 3, 3-methyl-2-indolic acid] |  | LC-HR-MS detection of MIA-AMP (4) (NosI; ATP co-substrate, MIA adenylated, then transferred to pantetheine or holo-NosJ): LC-HR-MS analysis of the reaction mixture containing NosI, MIA and ATP clearly showed the production
